Results published in BindingDB's records for patent US20240132473 (Shanghai Xunhe Pharmaceutical Technology Co., 2024).

Target: T1, Interleukin-1 receptor-associated kinase 4 (Homo sapiens, UniProt Q9NWZ3)
T1 sequence (Q9NWZ3 whole entry): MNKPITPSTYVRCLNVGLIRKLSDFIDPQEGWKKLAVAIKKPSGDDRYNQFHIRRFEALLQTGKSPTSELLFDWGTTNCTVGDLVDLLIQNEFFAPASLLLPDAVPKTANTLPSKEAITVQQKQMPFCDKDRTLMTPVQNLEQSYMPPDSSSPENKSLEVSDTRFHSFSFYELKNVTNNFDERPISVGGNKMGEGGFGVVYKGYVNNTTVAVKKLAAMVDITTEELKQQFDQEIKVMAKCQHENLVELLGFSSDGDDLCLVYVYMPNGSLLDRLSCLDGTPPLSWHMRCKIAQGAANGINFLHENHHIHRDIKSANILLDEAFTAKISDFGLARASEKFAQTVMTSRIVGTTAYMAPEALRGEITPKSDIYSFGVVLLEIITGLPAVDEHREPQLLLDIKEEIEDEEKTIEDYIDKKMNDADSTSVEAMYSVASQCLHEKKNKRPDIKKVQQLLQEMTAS
Test: IRAK4 Kinase Inhibitory Activity Assay
Protocol: The inhibitory activity (IC50) of the compound on IRAK4 kinase under Km ATP was detected by mobility shift assay (MSA). Ten drug concentration gradients were set (initial concentration 1 μM, 3-fold dilution, 2 duplicate wells per concentration). […] After incubation at 28° C. for a period of time, 10 μL of termination buffer was added to terminate the reaction. The conversion rate data was read with Caliper, and then the conversion rate was converted into inhibition rate data. According to the inhibition rate data of each concentration, the IC50 of half inhibitory concentration was calculated by Logit method (Table 3).

Structure (SMILES)	IC50 [µM]
CC(C)(O)c1cc2nn(CCS(C)(=N)=O)cc2cc1NC(=O)c1cccc(C(F)(F)F)n1 (configuration not stated) [US20240132473, Compound MY-004-102]	0.152
COc1cc2nn(CCS(C)(=N)=O)cc2cc1NC(=O)c1cccc(C(F)(F)F)n1 (configuration not stated) [US20240132473, Compound MY-004-103]	0.137
